Assay: Isometric squat rate of force development (RFD)
Assay type: in vivo, human
Parameters: RFD50 ms / RFD50 ms Δ / RFD100 ms / RFD100 ms Δ / RFD200 ms / RFD200 ms Δ / RFD30 ms / RFD30 ms Δ: unit not given here
Conditions: for RFD30 ms Δ / RFD30 ms Δ (%) / RFD50 ms Δ / RFD50 ms Δ (%) / RFD100 ms Δ / RFD100 ms Δ (%) / RFD200 ms Δ / RFD200 ms Δ (%): baseline to W 8; for RFD30 ms ES (d) / RFD50 ms ES (d) / RFD100 ms ES (d) / RFD200 ms ES (d): effect size
Procedure: Isometric and isokinetic squats were performed using a mechanized squat device (Exerbotics eSq, Tulsa, Okla., USA) (31, 32). At the first assessment, each participant's preferred foot positioning was determined using a custom grid overlaid on the foot platform of the squat device. This foot positioning was recorded and utilized for all visits. No weight belts, knee wraps, or other aids were utilized during testing. Prior to testing, the participant's range of motion for isokinetic testing was determined. The range of motion was set to 90° between the thigh and lower leg at the bottom of the repetition and approximately 170° at the top of the repetition, as determined by a goniometer. The isometric testing included maximal effort pushes at 120° and 150° knee angles. Each participant was instructed to push against the device as hard and fast as possible while attempting to complete a squat movement. Two isometric pushes were performed at each knee angle, and each effort lasted approximately 2 to 3 seconds. After the isometric testing, a 3-repetition maximum isokinetic force production test was completed. Prior to testing, participants observed the movement of the machine and received verbal instruction regarding proper performance of the assessment. Each of the repetitions during the maximal isokinetic force production test consisted of a 4-second eccentric phase, followed by an approximately half-second pause at the 90° knee position and a 4-second concentric phase. During testing, the force signal was sampled from the load cell at 1 kHz (MP100; Biopac Systems, Inc, Santa Barbara, Calif., USA), stored on a personal computer, and processed off-line using custom-written software (LabVIEW, Version 11.0; National Instruments, Austin, Tex., USA). The scaled force signal was low-pass filtered, with a 10-Hz cutoff (zero-phase lag, fourth-order Butterworth filter). All subsequent analyses were conducted on the scaled and filtered force signal. For the isometric force production tests, the rate of force development (RFD) over specific time intervals (i.e. 30, 50, 100 and 200 ms) was calculated by manually specifying the onset of force production within the custom LabVIEW program. For each repetition of the maximum isokinetic force production test, isokinetic peak forces (PF) were determined as the highest mean 25-ms epoch for both concentric and eccentric testing (i.e. PFCONC and PFECC).

## CC(C)(O)CC(=O)O [TRFHMB, β-hydroxy-β-methylbutyrate]
ITT, knee angle 120°, Baseline
  RFD30 ms: 1638 ± 411
  RFD50 ms: 2017 ± 472
  RFD100 ms: 2621 ± 719
  RFD200 ms: 3661 ± 503
ITT, knee angle 120°, W 4
  RFD30 ms: 2131 ± 457
  RFD50 ms: 2760 ± 506
  RFD100 ms: 3451 ± 759
  RFD200 ms: 4121 ± 475
ITT, knee angle 120°, W 8
  RFD30 ms: 2606 ± 494
  RFD50 ms: 3153 ± 510
  RFD100 ms: 4205 ± 774
  RFD200 ms: 4332 ± 472
ITT, knee angle 120°
  RFD30 ms Δ: 969
  RFD30 ms Δ (%): 59%
  RFD50 ms Δ: 1135
  RFD50 ms Δ (%): 56%
  RFD100 ms Δ: 1585
  RFD100 ms Δ (%): 60%
  RFD200 ms Δ: 671
  RFD200 ms Δ (%): 18%
  RFD30 ms ES (d): 0.59
  RFD50 ms ES (d): 0.64
  RFD100 ms ES (d): 0.59
  RFD200 ms ES (d): 0.38
ITT, knee angle 150°, Baseline
  RFD30 ms: 1922 ± 471
  RFD50 ms: 2203 ± 703
  RFD100 ms: 2694 ± 825
  RFD200 ms: 3163 ± 491
ITT, knee angle 150°, W 4
  RFD30 ms: 2612 ± 420
  RFD50 ms: 2989 ± 482
  RFD100 ms: 3567 ± 750
  RFD200 ms: 3511 ± 447
ITT, knee angle 150°, W 8
  RFD30 ms: 2851 ± 469
  RFD50 ms: 3208 ± 468
  RFD100 ms: 3944 ± 754
  RFD200 ms: 3876 ± 443
ITT, knee angle 150°
  RFD30 ms Δ: 929
  RFD30 ms Δ (%): 48%
  RFD50 ms Δ: 1004
  RFD50 ms Δ (%): 46%
  RFD100 ms Δ: 1251
  RFD100 ms Δ (%): 46%
  RFD200 ms Δ: 713
  RFD200 ms Δ (%): 23%
  RFD30 ms ES (d): 0.53
  RFD50 ms ES (d): 0.45
  RFD100 ms ES (d): 0.42
  RFD200 ms ES (d): 0.41
PP, knee angle 120°, Baseline
  RFD30 ms: 1669 ± 662
  RFD50 ms: 2016 ± 758
  RFD100 ms: 2642 ± 1153
  RFD200 ms: 4079 ± 688
PP, knee angle 120°, W 4
  RFD30 ms: 2267 ± 723
  RFD50 ms: 3028 ± 787
  RFD100 ms: 3845 ± 1195
  RFD200 ms: 4636 ± 648
PP, knee angle 120°, W 8
  RFD30 ms: 2917 ± 675
  RFD50 ms: 3470 ± 675
  RFD100 ms: 4629 ± 1111
  RFD200 ms: 4824 ± 569
PP, knee angle 120°
  RFD30 ms Δ: 1248
  RFD30 ms Δ (%): 75%
  RFD50 ms Δ: 1454
  RFD50 ms Δ (%): 72%
  RFD100 ms Δ: 1987
  RFD100 ms Δ (%): 75%
  RFD200 ms Δ: 745
  RFD200 ms Δ (%): 18%
  RFD30 ms ES (d): 0.71
  RFD50 ms ES (d): 0.77
  RFD100 ms ES (d): 0.66
  RFD200 ms ES (d): 0.45
PP, knee angle 150°, Baseline
  RFD30 ms: 2121 ± 770
  RFD50 ms: 2420 ± 1187
  RFD100 ms: 3072 ± 1377
  RFD200 ms: 3441 ± 708
PP, knee angle 150°, W 4
  RFD30 ms: 2845 ± 625
  RFD50 ms: 3274 ± 715
  RFD100 ms: 3940 ± 1178
  RFD200 ms: 3613 ± 634
PP, knee angle 150°, W 8
  RFD30 ms: 3177 ± 622
  RFD50 ms: 3572 ± 604
  RFD100 ms: 4346 ± 1070
  RFD200 ms: 4237 ± 558
PP, knee angle 150°
  RFD30 ms Δ: 1056
  RFD30 ms Δ (%): 50%
  RFD50 ms Δ: 1152
  RFD50 ms Δ (%): 48%
  RFD100 ms Δ: 1274
  RFD100 ms Δ (%): 41%
  RFD200 ms Δ: 796
  RFD200 ms Δ (%): 23%
  RFD30 ms ES (d): 0.57
  RFD50 ms ES (d): 0.46
  RFD100 ms ES (d): 0.39
  RFD200 ms ES (d): 0.47
